Measured values taken from patent US20050019746A1, “Apoptosis-related kinase/GPCRs” (EiRx Therapeutics Limited, priority 2003, published 2005).

Tests used:
[1] = system: target gene mRNA in PC3 cells; test: Validation of siRNA efficacy by QPCR in PC3 cells; assay type: cell-based, human; details: PC3, siRNA 50 nM, RNAiFect, 24 hours post transfection, relative to non-silencing control, normalised to GAPDH
Procedure: To evaluate the ability of each siRNA oligonucleotides to knock down its intended target, each siRNA was validated in a cell line known to express the target, in this example the genes were tested PC3 cells, which were shown by expression profiling to express all target genes. The efficacy of knockdown was measured using QPCR. Cells are plated at a density of 2×10^4 cells in each well of a 24 well plate and incubated at 37° C. overnight. The siRNA is transfected into cells using RNAiFect reagent (Qiagen) with siRNA at a concentration of 50 nM according to manufacturer's instructions. Additional wells of cells are transfected with 50 nM of a non-silencing control (Qiagen). […] Transfected cells are harvested at 24 hours post transfection, and RNA extracted using RNeasy Miniprep columns with an on-column DNase digestion step. The RNA is eluted in 30 μl of RNase-free H2O. cDNA is synthesised from 12 μl of this RNA using an anchored oligo(dT) primer (Sigma) and Transcriptor reverse transcriptase (Roche) at 55° C. in a total volume of 20 μl following the manufacturer's instructions. The resulting cDNA is diluted to a total of 200 μl with H2O and 10 μl used in each QPCR reaction. The levels of transcript are compared by QPCR, relative to the non-silencing control. QPCR is performed using primers, conditions and methodology identical to those used for expression profiling, see Table 8. All reactions were performed in duplicate and the average Ct values calculated. For each sample, the Ct of each target gene in normalised to GAPDH. Relative expression between cells transfected with target or non-silencing siRNA, normalised to GAPDH expression, is determined by the comparative Ct method.

U251 cells = test: Anchorage Independence/Soft Agar Assay, U251; assay type: cell-based, human; details: soft agar, experiment n = 1
Procedure: The Anchorage Independence/Soft Agar Assay allows assessment of the influence of modulation of gene expression on clonal tumouroid formation by observing and quantifying tumouroid morphology and colony number over an extended period of logarithmic growth thereby ascertaining any cell death is induced.
Cells are seeded into a 6-well plate and allowed to adhere overnight at 37° C. in a humidified atmosphere containing 5% CO2 in air. Cells are next transfected with siRNA Oligomers, at a concentration of 2 μg, against the genes of interest. Transfections continued for 4 hrs after which the transfection solution is removed and cells are refed with fresh medium and allowed incubate overnight. Transfected cells are next harvested for seeding into soft agar assay as described below. […] Colonies formed are subsequently stained with Crystal Violet, their morphology is assessed and colonies formed are enumerated at a 4× magnification.
The cytotoxic effect of each gene is determined by a reduction in colony number compared to our MS control, but any influence on the morphology of the colony is also noted.
Examples of genes with a cytotoxic effect on knockdown as detected by the soft agar assay are outlined in Table 14. […]

Substance	Decrease in expression of target gene [1]	PERCENTAGE SURVIVAL RELATIVE TO MS, U251, n = 1 (U251 cells)
siRNA EKI: siRNA duplex, sense GCACUGGAUCCAAAGCAUGtt, antisense CAUGCUUUGGAUCCAGUGCtt; same in Tables 9 and 11 (sense GCACUGGAUCCAAAGCAUGTT; antisense CAUGCUUUGGAUCCAGUGCTT; chemistry not given here)	76.0%	–
siRNA GRAF: siRNA duplex, sense GCGGAAGUUUGCAGAUUCCtt, antisense GGAAUCUGCAAACUUCCGCtt; same in Tables 9 and 11 (sense GCGGAAGUUUGCAGAUUCCTT; antisense GGAAUCUGCAAACUUCCGCTT; chemistry not given here)	64.5%	–
siRNA MPSK1: sense GGGUUAUGCCCACAGAGACtt, antisense GUCUCUGUGGGCAUAACCCtt (sense GGGUUAUGCCCACAGAGACTT; antisense GUCUCUGUGGGCAUAACCCTT; chemistry not given here)	–	18%
siRNA NTKL: siRNA duplex, sense UGUGGAGCUGAUGAAGCACtt, antisense GUGCUUCAUCAGCUCCACAtt; same in Tables 9 and 11 (sense UGUGGAGCUGAUGAAGCACTT; antisense GUGCUUCAUCAGCUCCACATT; chemistry not given here)	82.9%	–
siRNA ROCK: siRNA duplex, sense UACAUGCCUGGUGGAGAUCtt, antisense GAUCUCCACCAGGCAUGUAtt; same in Tables 9 and 11 (sense UACAUGCCUGGUGGAGAUCTT; antisense GAUCUCCACCAGGCAUGUATT; chemistry not given here)	65.0%	–
siRNA Survivin: positive control siRNA, sense GAACUGGCCCUUCUUGGAGtt, antisense CUCCAAGAAGGGCCAGUUCtt (sense GAACUGGCCCUUCUUGGAGTT; antisense CUCCAAGAAGGGCCAGUUCTT; chemistry not given here) [reference compound]	82.2%	–
